Results on 12 compounds are retold here after publication PMC2266582 (The Journal of General Physiology, 2005).

The conditions of series [1]: cited from earlier work; for Pauling crystal radii: ref Bezanilla and Armstrong, 1972, Armstrong, 2003.
The target in series [2] is T1, KcsA tetramer (Streptomyces lividans, UniProt P0A334).
T1 sequence (P0A334 1-160): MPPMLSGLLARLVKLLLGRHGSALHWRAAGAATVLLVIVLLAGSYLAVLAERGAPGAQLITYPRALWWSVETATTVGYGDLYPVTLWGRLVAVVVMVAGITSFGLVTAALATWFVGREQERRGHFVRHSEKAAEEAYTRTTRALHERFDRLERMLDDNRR
Kind of series: Tetramer protection titration of stabilizing cations against high temperature. The note with it: 100 mM choline Cl. Type of series: binding.

Series [3] concerns the target T1, KcsA tetramer. The experiment in a line: Temperature dependence of KcsA tetramer monitored by SDS-PAGE. The note with it: for effect on temperature dependence of KcsA tetramer: 5 mM MgCl2 or 5 mM CaCl2 added to 100 mM choline Cl; for thermal stability of KcsA tetramer: 100 mM KCl or 100 mM NaCl, heated 10 min at 60–99°C.
The target in series [4] is T1, KcsA tetramer. The experiment in a line: Time course of decay of KcsA tetramer at 90°C. Format: binding.
Series [5] concerns the target T1, KcsA tetramer. Format: binding.
Where [6] appears, read: values determined by Pauling, ref Hille (2001).
Where [7] appears, read: K0.5 (cation concentration at half-maximal stabilization), fit to Eq. 1, heated 10 min at 90°C, 10 mM Hepes-Tris pH 7.4.

Like-named read-outs stand apart in the source and are kept apart here.

One may read the EC50 as the concentration giving half of the maximal effect. For the compound `[Ba+2]` [Ba^2+, BaCl2], the Radius in series [1] (setting [6]) is on record as 1.35 Å. For the same compound, the concentration for a half-maximal effect (EC50) on KcsA tetramer [2] (K0.5 of tetramer protection titration, heated 10 min at 90°C) turned out to be 0.00021 mM. With `[Ca+2].[Cl-].[Cl-]` [Ca^2+, CaCl2], the “effect on temperature dependence of KcsA tetramer” value at KcsA tetramer [3] is “small protective effect at temperatures >60 °C”. For `[Cs+]` [Cs^+, CsCl], in series [1] (setting [6]), the Radius is given as 1.69 Å. The same compound displayed a concentration giving a half-maximal response (EC50) on KcsA tetramer [2] (setting [7]) of 4.1 ± 3.5 mM.

Regarding `[K+]` [K^+, KCl], the “thermal stability of KcsA tetramer” value at KcsA tetramer [3] is listed as “fully stable”. The Pauling crystal radii in series [1] is listed as 1.33 Å. Also, the Radius in series [1] (setting [6]) is 1.33 Å. Besides, the “time course of tetramer denaturation” value on KcsA tetramer [4] (0.1 mM K^+ added to 100 mM choline Cl, 90°C) is listed as “complex slower biphasic decay”. For the same compound, at KcsA tetramer [4] (100 mM KCl, 30 min of incubation at 90°C), the loss of tetramer result is listed as “virtually no loss of tetramer”. Further, on KcsA tetramer [2] (setting [7]), the half-maximal effective concentration (EC50) is 1.5 ± 2.5 mM. Broadly, the IC50 is the midpoint of a concentration-inhibition curve. The low end stands for greater potency, the high end for weaker potency. Compound `[Li+]` [Li^+, LiCl] showed an IC50 on KcsA tetramer [5] of 57 mM. With `[Cl-].[Cl-].[Mg+2]` [Mg^2+, MgCl2], the “effect on temperature dependence of KcsA tetramer” value at KcsA tetramer [3] was “destabilize KcsA at lower temperatures”. For `N` [NH4 ^+, NH4Cl], in series [1] (estimated by a molecular graphics approach, ref Sun et al. (1997)), the Radius is reported as 1.8 Å.

`[Na+]` [Na^+, NaCl]: on KcsA tetramer [3], the “thermal stability of KcsA tetramer” value is “progressively lost at temperatures >65 °C”. In series [1], the Pauling crystal radii is listed as 0.95 Å. In the case of `[Rb+]` [Rb^+, RbCl], the Radius in series [1] (setting [6]) is 1.48 Å. The compound also registered a concentration giving a half-maximal response (EC50) on KcsA tetramer [2] (setting [7]) of 1.7 ± 3.3 mM. Regarding `[Sr+2]` [Sr^2+, SrCl2], in series [1] (setting [6]), the Radius is reported as 1.13 Å. Further, a half-maximal response at KcsA tetramer [2] (K0.5 of tetramer protection titration, heated 10 min at 85°C) (EC50) required 0.011 mM. As to `[Tl+]` [Tl^+, Tl acetate], the Radius in series [1] (setting [6]) is reported as 1.40 Å. At KcsA tetramer [2] (setting [7]), this compound gave a concentration for a half-maximal effect (EC50) of 1.1 mM.

Take `C[N+](C)(C)CCO.[Cl-]` [choline^+, choline Cl]: the “time constant of single exponential decay of tetramer” value on KcsA tetramer [4] (100 mM choline Cl, absence of K^+, 90°C) stood at 16.5 s.
